Test results taken from patent US8314092B2, “Substituted [(5H-pyrrolo[2,1-c][1,4]benzodiazepin-11-yl)piperazin-1-yl]-2,2-dimethylpropanoic acid compounds as dual activity H1 inverse agonists/5-HT2A antagonists” (Eli Lilly and Company, priority 2011, dated 2012).
Counter-ions that a name gives are not always drawn.

Key:
5-HT2A Receptor = biological target: T1, 5-HT2A Receptor (Rattus norvegicus, UniProt P14842); experiment: 5-HT2A receptor occupancy in vivo (MDL 100907 tracer); details: oral gavage, 1 hour before tracer, read-out: 5-HT2A receptor occupancy EC50
T1 construct: samples of the frontal cortex and cerebellum are removed; from tissue; host or cells: living rat; frontal cortex (cerebellum as null region)
T1 sequence (P14842 whole entry): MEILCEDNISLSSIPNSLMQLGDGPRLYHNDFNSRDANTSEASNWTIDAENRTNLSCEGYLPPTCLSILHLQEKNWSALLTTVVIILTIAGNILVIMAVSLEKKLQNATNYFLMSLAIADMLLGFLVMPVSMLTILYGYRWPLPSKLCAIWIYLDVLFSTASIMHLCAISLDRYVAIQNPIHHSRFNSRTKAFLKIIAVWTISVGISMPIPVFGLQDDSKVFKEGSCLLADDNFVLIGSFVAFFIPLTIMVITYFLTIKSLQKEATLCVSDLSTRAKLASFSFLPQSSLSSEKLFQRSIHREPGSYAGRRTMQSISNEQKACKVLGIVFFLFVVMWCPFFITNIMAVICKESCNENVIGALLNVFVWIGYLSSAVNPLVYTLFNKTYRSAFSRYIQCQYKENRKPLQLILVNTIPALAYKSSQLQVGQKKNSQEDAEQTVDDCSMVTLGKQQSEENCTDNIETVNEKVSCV
Procedure: Briefly, male Sprague-Dawley rats (Harlan Sprague-Dawley, Indianapolis, Ind.) weighing approximately 230-280 grams are given ad lib access to food and water until the beginning of the 3-hour experimental protocol. 1 mg/kg ketanserin (non-selective 5-HT2A antagonist) is used as a positive control to establish assay validity. Test compounds or control are administered by oral gavage in a vehicle comprised of 20% hydroxypropyl beta-cyclodextrin. MDL 100907 ((R) -(+)-α-(2,3-Dimethoxyphenyl)-1-[2-(4-fluorophenyl)ethyl]-4-piperidinemethanol), a selective 5-HT2A antagonist, is used as a tracer. […] It is at the time of tracer administration that receptor occupancy (RO) is considered to be measured. […] The level of MDL 100907 tracer is measured in each cortical and cerebellar sample. RO is calculated using the well-established ratio method which employs a region of high receptor density representative of total binding (frontal cortex) normalized by an area without or with very low levels of receptor (cerebellum). […]
MDL 100907 Analysis: Cortex and cerebellar samples are weighed and placed in conical centrifuge tubes on ice. […] Standards are prepared by adding known quantities of analyte to brain tissue samples from non-treated rats and processing as described above. […]

[1] = biological target: T2, recombinant 5-HT2c receptor (human) (Homo sapiens, UniProt P28335); experiment: 5-HT2c competition binding assay ([125I]-DOI SPA)
T2 construct: expressed in transfected cells
T2 sequence (P28335 33-458): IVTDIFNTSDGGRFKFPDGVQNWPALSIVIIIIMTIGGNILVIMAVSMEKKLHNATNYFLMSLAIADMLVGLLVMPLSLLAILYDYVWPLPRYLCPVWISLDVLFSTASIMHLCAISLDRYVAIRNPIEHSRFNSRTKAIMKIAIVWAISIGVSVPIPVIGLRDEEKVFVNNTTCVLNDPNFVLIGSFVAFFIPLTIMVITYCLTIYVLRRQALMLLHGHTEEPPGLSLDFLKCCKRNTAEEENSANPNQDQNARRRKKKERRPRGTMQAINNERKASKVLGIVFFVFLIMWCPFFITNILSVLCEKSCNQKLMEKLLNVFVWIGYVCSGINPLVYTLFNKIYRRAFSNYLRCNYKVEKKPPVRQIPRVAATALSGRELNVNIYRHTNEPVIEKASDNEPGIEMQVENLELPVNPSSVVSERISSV
Procedure: [^125I]-(±)DOI binding experiments are carried out in SPA 96-well format. Membranes used in this assay are prepared from AV-12 cells stably expressing recombinant 5-HT2c receptor (human). The incubation is initiated by the addition of a mixture of WGA PVT SPA beads (0.5 mg/well, Perkin Elmer (MA, USA), RPNQ0001) and 2.5 μg membranes to assay buffer (50 mM Tris-HCl, 10 mM MgCl2, 0.5 mM EDTA, 10 μM pargyline, 0.1% ascorbic acid, pH7.4) containing 0.2 nM [[^125I]-(±)DOI and varying concentrations of the test compound (10 point concentration response curves). Non-specific binding is determined in the presence of 20 μM 1-(1-Naphthyl)piperazine. Samples are incubated for four hours at room temperature (22° C.) and then read in a Microbeta Trilux.
Curves are evaluated using a 4-parameter logistic nonlinear equation to obtain the concentration of competitor causing 50% inhibition of radioligand binding (IC50). Equilibrium dissociation constants (Ki) are calculated according to the equation Ki=IC50/(1+L/Kd), where L equals the concentration of radioligand used in the experiment and Kd equals the equilibrium dissociation constant of the radioligand for the receptor, determined from standard saturation analysis or homologous competition experiments. […]

Dopamine D3 = Dopamine D3 (Homo sapiens, UniProt P35462); experiment: Dopamine D3 binding
Dopamine D3, sequence (P35462 whole entry): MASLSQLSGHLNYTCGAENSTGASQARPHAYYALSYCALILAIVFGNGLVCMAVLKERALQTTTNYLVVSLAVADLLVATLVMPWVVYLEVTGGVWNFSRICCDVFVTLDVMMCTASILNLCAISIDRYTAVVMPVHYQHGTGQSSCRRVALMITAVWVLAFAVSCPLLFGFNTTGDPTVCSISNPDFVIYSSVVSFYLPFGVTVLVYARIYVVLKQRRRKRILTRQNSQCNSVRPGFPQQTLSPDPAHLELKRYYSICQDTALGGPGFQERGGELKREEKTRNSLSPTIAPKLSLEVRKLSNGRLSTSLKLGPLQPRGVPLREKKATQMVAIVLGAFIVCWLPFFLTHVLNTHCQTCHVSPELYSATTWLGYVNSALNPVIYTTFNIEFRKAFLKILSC
Excerpt: (§1) Further, the compounds of the invention may be tested in binding assays and functional activity assays by well known methods for other physiologically important receptors such as, but not limited to, the hERG channel, other serotonin receptors (specifically 5-HT1A, 5-HT1B, 5-HT1D, 5-HT1E, 5-HT1F receptors, lack of agonist activity at 5-HT2B receptors, 5-HT2C, 5-HT4, 5-HTS, 5-HT6, and 5-HT7 receptors), muscarinic receptors, dopaminergic receptors (specifically D1, D2, and D3), GABAA receptors, adrenergic receptors and monoamine transporters. Certain exemplified compounds are tested at these receptors and are shown to lack significant activity.

Dopamine D1 = Dopamine D1 (Homo sapiens, UniProt P21728); experiment: Dopamine D1 binding
Dopamine D1, sequence (P21728 whole entry): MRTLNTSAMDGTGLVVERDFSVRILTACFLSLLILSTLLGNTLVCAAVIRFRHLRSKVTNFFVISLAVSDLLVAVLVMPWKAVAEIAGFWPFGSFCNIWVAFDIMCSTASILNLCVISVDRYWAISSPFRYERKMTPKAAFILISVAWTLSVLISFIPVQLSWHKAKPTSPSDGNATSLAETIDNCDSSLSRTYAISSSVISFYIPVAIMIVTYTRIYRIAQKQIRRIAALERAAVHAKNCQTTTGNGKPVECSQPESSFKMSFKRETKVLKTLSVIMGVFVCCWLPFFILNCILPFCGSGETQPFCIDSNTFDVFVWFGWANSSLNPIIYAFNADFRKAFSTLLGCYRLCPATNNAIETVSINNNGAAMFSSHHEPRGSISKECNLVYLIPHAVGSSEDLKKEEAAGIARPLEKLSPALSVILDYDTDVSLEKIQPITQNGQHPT
Excerpt: as §1

SMILES: Cc1cc2n(c1)Cc1cc(Cl)ccc1N=C2N1CCN(CC(C)(C)C(=O)O)CC1 [Example 13, 3-[4-(7-Chloro-2-methyl-5H-pyrrolo[2,1-c][1,4]benzodiazepin-11-yl)piperazin-1-yl]-2,2-dimethylpropanoic acid dihydrochloride]
- ED50 (5-HT2A Receptor): 0.27 mg/kg
- Ki [1]: 2370 nM
- Ki (Dopamine D3): > 4110 nM
- Ki (Dopamine D1): 1860 nM
